IC50 data for one compound are collected here from paper PMC9709778 (RSC Chemical Biology, 2022).

This assay has as its target amyloid β (Aβ42) (Homo sapiens, UniProt P05067). The assay is described as follows: 1H-15N SOFAST-HMQC NMR chemical shift perturbation. The assay is classed as biochemical.

amyloid β (Aβ42), sequence (P05067 672-713): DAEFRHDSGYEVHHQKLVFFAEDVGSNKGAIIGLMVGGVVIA

As usually defined, the IC50 is the midpoint of a concentration-inhibition curve. In the case of `COc1cc(OC)c(C(=O)/C=C/c2ccccc2)c(O)c1O` [DDC, 2′,3′-dihydroxy-4′,6′-dimethoxychalcone], the half-maximal inhibitory concentration (IC50) turned out to be 10.6 ± 1.3 µM.
